# Measured values as given in patent US20060189539A1, “Novel GnRH analogues with antitumour effects and pharmaceutical compositions thereof” (priority 1994, published 2006).
# Non-standard residues stand in square brackets, D forms with d. Residues, ends and D or L forms follow the SMILES beside them. dPhe(4-Cl) = N[C@H](Cc1ccc(Cl)cc1)C(=O)O
# Tests used:
# [1] = test system: Ishikawa endometrium tumour cell culture; experiment: Inhibition of colony formation (dose-survival), Example 48; type: cell-based, human; conditions: 50 μM
# Description: (§1) MCF-7 human mammary carcinoma cell line was stabilized in 1973 by Soule et al. from the pleural fluid of a patient suffering from mammary carcinoma. MDA-MB-231 human mammary carcinoma cell line was isolated and stabilized by Cailleau et al. in 1974 similarly from pleural fluid. Both cell lines grow in monolayer. MCF-7 and MDA-MB-231 human mammary carcinoma cell lines are maintained in plastic flasks (Greiner), in Dulbecco-modified Eagle-MEM (DMEM, GIBCO) liquid nutrient medium containing 10% of fetal calf serum. MCF-7 cell line is estradiol receptor (ER)-positive containing proteins specifically binding GnRH. Thus, it represents, a useful model system for investigating the direct effect of GnRH mediated by the GnRH receptor. Being ER-negative and GnRH receptor-positive, MDA-MB-231 cell line is similarly suitable to study the direct effect of GnRH. PC3 human prostate carcinoma cell line was stabilized in cell culture by Kaighn et al. in 1979. The cells are of epithelial type and form compact colonies in clonogenic assays. The Ishikawa cell line originates from human endometrial adenocarcinoma [M. Nishida et al.: Acta Obstet. Gynecol. Jpn. 37, 1103-1111 (1985)], it is epithelial in its character and contains steroid-as well as GnRH receptors.
# (§2) The examination gives accurate information about the cell-damaging effect of the substance tested as a function of varying doses. The treatment was carried out once; the colonies formed from the surviving cells were counted after 8-12 days. […] A part of the arrested cells again entered the cycle, an other part of them might be destroyed (apoptosis). […] In the case of a dose-response investigation, colonies containing less than 15 cells were not counted. 300 cells were put into each Petri dishes of 3.5 cm in diameter. The treatment was once carried out 24 hours after setting, then the colonies formed were counted after 8-12 days. The cells were treated once after 24 hours with 1-50 μM of various GnRH analogues of Examples above or with 1-50 μM of GnRH-III, respectively. The percentages of inhibition obtained on MCF-7, MDA-MB-231, PC3 and Ishikawa cells, respectively, together with the dose of the active agent used are shown in Table VIII.
# human tumor cell lines = experiment: Colony formation, Example 48, comparison with control D-Trp6-hGnRH; type: cell-based; conditions: data of Table VIII
# Method: as §2
# In these studies the D-Trp6-hGnRH analogue (Sigma Co.) commonly used in the tumour therapy was employed as control.
# [2] = test system: MCF-7 human mammary carcinoma cell line; experiment: Inhibition of colony formation (dose-survival), Example 48; type: cell-based
# Description: MCF-7 human mammary carcinoma cell line was stabilized in 1973 by Soule et al. from the pleural fluid of a patient suffering from mammary carcinoma. MDA-MB-231 human mammary carcinoma cell line was isolated and stabilized by Cailleau et al. in 1974 similarly from pleural fluid. Both cell lines grow in monolayer. […] MCF-7 cell line is estradiol receptor (ER)-positive containing proteins specifically binding GnRH. Thus, it represents, a useful model system for investigating the direct effect of GnRH mediated by the GnRH receptor. Being ER-negative and GnRH receptor-positive, MDA-MB-231 cell line is similarly suitable to study the direct effect of GnRH. PC3 human prostate carcinoma cell line was stabilized in cell culture by Kaighn et al. in 1979. The cells are of epithelial type and form compact colonies in clonogenic assays. The Ishikawa cell line originates from human endometrial adenocarcinoma [M. Nishida et al.: Acta Obstet. Gynecol. Jpn. 37, 1103-1111 (1985)], it is epithelial in its character and contains steroid-as well as GnRH receptors. The examination gives accurate information about the cell-damaging effect of the substance tested as a function of varying doses. The treatment was carried out once; the colonies formed from the surviving cells were counted after 8-12 days. […] A part of the arrested cells again entered the cycle, an other part of them might be destroyed (apoptosis). […] The treatment was once carried out 24 hours after setting, then the colonies formed were counted after 8-12 days. The cells were treated once after 24 hours with 1-50 μM of various GnRH analogues of Examples above or with 1-50 μM of GnRH-III, respectively. The percentages of inhibition obtained on MCF-7, MDA-MB-231, PC3 and Ishikawa cells, respectively, together with the dose of the active agent used are shown in Table VIII.
# [3] = test system: MDA-MB-231 human mammary carcinoma cell line; experiment: as above; type: cell-based
# Description: as §1, §2
# [4] = test system: PC3 prostate tumour cell culture; experiment: as above; type: cell-based, human; conditions: for % Inhibition of colony formation: 50 μM; for Effect on colony-forming ability: within the dose range used (1-50 μM)
# Description: as §1, §2
# MXT mouse mammary tumour = experiment: In vivo antitumour effect on MXT mouse mammary tumour; design: species or system CBA/Ca mice
# Method: The MXT mouse mammary carcinoma contains ER and PgR proteins; furthermore, it contains also GnRH receptors; therefore, this in vivo tumor model is suitable for studying both the direct and indirect effects. The treatment of mice bearing MXT mammary tumour was commenced on the day following transplantation. […] The animals were daily treated in s.c. route starting from the day following transplantation of MXT mouse mammary tumour. […] MI-1544: 75 μg/day/animal; MI-1892: 75 μg/day/animal.
# [5] = test system: MCF-7 human mammary carcinoma cell line; experiment: Inhibition of colony formation (dose-survival), Example 18; type: cell-based; conditions: 50 μM
# Description: (§3) Human cell lines used in in vitro experiments. MCF-7 human mammary tumour cell line was stabilized in 1973 by Soule et al. from the pleural fluid of mammary carcinoma patients. The cells grow in monolayer and are epithelial in their character. MDA-MB-231 human mammary carcinoma cell line was isolated and stabilized in 1974 by Cailleau et al. similarly from pleural fluid. These cells also grow in monolayer. PC3 human prostate carcinoma cell line was stabilized 20 in 1979 in cell culture by Kaighn et al.; the cells are of simple epithelium type and form compact colonies in clonogenic assays. Ishikawa cell line originated from adenocarcinoma of human endometrium [Nishida et al.: Obstet. Gynecol. Jpn, 37, 25 1103-1111 (1985)], has epithelial character and contains steroid as well as GnRH receptors. Human tumour cell lines are maintained in plastic flasks (Greiner) in Dulbecco-6modified Eagle-MEM (DMEM GIBCO) nutritive medium. The medium used herein contained 10% of fetal calf serum (FCS).
# (§4) In the case of cytostatics the cell-damaging effect is not cell-specific. […] One part of the arrested cells again go into the cycle, the other part may perish (apoptosis). […] The investigations were carried out on MCF-7 and MDA-MB-231 human mammary carcinoma cell lines, PC3 human prostate 15 carcinoma cell line and Ishikawa human endometrium carcinoma cell line. Threehundred cells were set into Petri dishes of 3.5 cm in diameter each. The treatment was carried out once, 24 hours following the explantation, then the colonies formed were counted after 9 to 12 days.
# [6] = test system: Ishikawa human endometrium carcinoma cell line; experiment: as above; type: cell-based; conditions: 50 μM
# Description: as §3, §4
# [7] = test system: PC3 human prostate carcinoma cell line; experiment: as above; type: cell-based; conditions: 50 μM
# Description: as §3, §4
Compound,% Inhibition of colony formation [1] [%],Inhibitory effect on colony formation compared with control D-Trp6-hGnRH (human tumor cell lines),% Inhibition of colony formation ([2]; 50 μM) [%],% Inhibition of colony formation ([3]; 50 μM) [%],further results
"[Trp(For-Ind)]^3,7-GnRH-III [Compound 14]",24,approximated the activity of the control,,,
"{D-Lys[n-poly(N-vinylpyrrolidone-co-maleic acid)-Gly-Phe-Leu-Gly]}6,-GnRH [P-GFLG-609]",,,,,% Inhibition of colony formation ([2]; 10 μM): 40%
"H-Glu^1, D-Trp^6-hGnRH [Compound 19]",,approximated the activity of the control,32.7,,% Inhibition of colony formation ([2]; 10 μM): 16.8%
Phe^7-GnRH-III [Compound 15],,weak if any effect,,21,
[Lys(ε-Fmoc)]^5-GnRH-III [Compound 1],,weak if any effect,,,
"Lys^5, D-Trp^6-hGnRH [Compound 17]",17,twice stronger inhibition,65,63,% Inhibition of colony formation [4]: 18%; Effect on colony-forming ability [4]: weakly inhibited; % Inhibition of colony formation ([3]; 10 μM): 30%
"CC(C)C[C@H](NC(=O)[C@@H](Cc1c[nH]c2ccccc12)NC(=O)[C@H](Cc1ccc(O)cc1)NC(=O)[C@H](CO)NC(=O)[C@H](Cc1c[nH]c2ccccc12)NC(=O)[C@H](Cc1c[nH]cn1)NC(=O)[C@@H]1CCC(=O)N1)C(=O)N[C@@H](CCCNC(=N)N)C(=O)N1CCC[C@H]1C(=O)NCC(N)=O [D-Trp6-hGnRH, pGlu-His-Trp-Ser-Tyr-D-Trp-Leu-Arg-Pro-Gly-NH2, reference compound]",,,36.7,38.7,% Inhibition of colony formation ([2]; 10 μM): 17.1%; % Inhibition of colony formation ([3]; 10 μM): 15.7%
"CC(=O)N[C@H](Cc1c[nH]c2ccccc12)C(=O)N[C@H](Cc1ccc(Cl)cc1)C(=O)N[C@H](Cc1c[nH]c2ccccc12)C(=O)N[C@@H](CO)C(=O)N[C@@H](Cc1ccc(O)cc1)C(=O)N[C@H](CCCCN)C(=O)N[C@@H](CC(C)C)C(=O)N[C@@H](CCCNC(=N)N)C(=O)N1CCC[C@H]1C(=O)N[C@H](C)C(N)=O [MI-1544, Ac-D-Trp^1,3,D-Cpa^2,D-Lys^6, D-Ala^10-hGnRH] (Ac-[dW][dPhe(4-Cl)][dW]SY[dK]LRP[dA]-NH2)",,,,,"Tumour volume as control (%) (MXT mouse mammary tumour; 75 μg/day/animal s.c., day 20): 54%; Inhibition % (MXT mouse mammary tumour; 1 × 75 μg daily s.c.): 46%; Tumour volume as control (%) (MXT mouse mammary tumour; 1 × 75 μg daily s.c., Treatment weeks: 20): 54%"
Lys^5-GnRH-III [Compound 2],,,0,0,
"Ac-D-Trp^1,3,D-Cpa2,{Lys[n-poly(N-vinylpyrrolidone-co-maleic acid)-Ahx]}5,[a-Asp(DEA)]6,D-Ala10-GnRH [P-Ahx-1892]",,,31,,
[Lys(ε-Ac)]^4-GnRH-III [Compound 7],14,exceeded the inhibitory effect of control,52,42,% Inhibition of colony formation [4]: 0%; Effect on colony-forming ability [4]: did not influence; % Inhibition of colony formation ([3]; 10 μM): 31%
Glu^6-GnRH-III [Compound 8],2,exceeded the inhibitory effect of control,,25,% Inhibition of colony formation [4]: 31%
"Lys^5,cyclo[Asp^6-Lys^8]-GnRH-III [Compound 3]",13,exceeded the inhibitory effect of control,44,,% Inhibition of colony formation [5]: 44%; % Inhibition of colony formation [6]: 13%
"{Lys[n-poly(N-vinylpyrrolidone-co-maleic acid)-Gly-Phe-Leu-Gly-]}5,cyclo(Asp6-Lys8)-GnRH-III [P-GFLG-Lys5-cyclo(Asp6,Lys8)-GnRH-III]",,,,,% Inhibition of colony formation [6]: 19%; % Inhibition of colony formation [7]: 100%
